Assay results published in patent publication US20070281900A1, “COMPOSITIONS AND METHODS FOR LIPID AND POLYPEPTIDE BASED siRNA [sequence] [sequence]” (NASTECH PHARMACEUTICAL COMPANY INC., priority 2006, published 2007).
Peptide text beside a SMILES is read from it.

Test system: 9L/LacZ cells
Experiment: Cell confluency as measure of effect of transfection condition on cell growth
Details: Qneg siRNA 100 nM, PN183 7 μM or PN73 2 μM where named, nontransfected cells 70%
Procedure: For each transfection mixture, 9L/LacZ cells (passage 8) were plated at density of 6.0×10^3 cells/well on a 96-well plate. […] The cationic lipid […]™ served as a positive transfection control. Non-transfected cells served as a negative transfection control and a positive control for cell growth.
Transfection efficiency was calculated by dividing the number of fluorescently labeled cells by the total number of cells and multiplying by 100. Cell confluency was used to measure the effect of each transfection condition on cell growth.

For C[C@@H](O)[C@H](NC(=O)[C@H](CCC(=O)O)NC(=O)[C@H](Cc1c[nH]c2ccccc12)NC(=O)[C@H](Cc1c[nH]c2ccccc12)NC(=O)[C@@H](NC(=O)[C@H](CCC(=O)O)NC(=O)[C@@H](N)CCCCN)[C@@H](C)O)C(=O)N[C@@H](Cc1c[nH]c2ccccc12)C(=O)N[C@@H](Cc1c[nH]c2ccccc12)C(=O)N[C@H](C(=O)N[C@@H](CCC(=O)O)C(=O)N[C@@H](Cc1c[nH]c2ccccc12)C(=O)N[C@@H](CO)C(=O)N[C@@H](CCC(N)=O)C(=O)N1CCC[C@H]1C(=O)NCC(=O)N[C@@H](CCCNC(=N)N)C(=O)N[C@@H](CCCCN)C(=O)N[C@@H](CCCCN)C(=O)N[C@@H](CCCNC(=N)N)C(=O)N[C@@H](CCCNC(=N)N)C(=O)N[C@@H](CCC(N)=O)C(=O)N[C@@H](CCCNC(=N)N)C(=O)N[C@@H](CCCNC(=N)N)C(=O)N[C@@H](CCCNC(=N)N)C(=O)N1CCC[C@H]1C(=O)N1CCC[C@H]1C(=O)N[C@@H](CCC(N)=O)C(N)=O)[C@@H](C)O [PN183] (H-KETWWETWWTEWSQPGRKKRRQRRRPPQ-NH2), which “% Cell Confluency 20 nM” value (lipid group 20 nM) is on record?
Its value is 70%.

And the “% Cell Confluency 60 nM” value (lipid group 60 nM)?
Its value is 70%.
